# Results: US7488576B2, “Methods for diagnosis and treatment of psychiatric disorders” (The Regents of the University of California, priority 2000, dated 2009)
# Several values for one entry are separate records, joined by “and”; a condition that tells them apart may be missing. Equal entries are not always repeated.
# Columns and labels:
# FGFR1 = test: Gene expression in rat brain after stimulant treatment (Affymetrix U34A GeneChip); assay type: in vivo; settings: 24 hours after single dose 4 mg/kg
# Method: (§1) In experiments conducted during the development of the present invention, the rat animal model was used. This model is commonly accepted by those in the art for experiments involving psychiatric disorders. In some experiments, rats were treated with a single dose of methamphetamine (4 mg/kg) and sacrificed 24 hours later. This timepoint was chosen as that most likely to detect changes of relevance to mania and psychosis. It was hypothesized that at 24 hours, most short term gene induction relevant to acute intoxication and behavioral activation would have subsided. […] As mania and psychosis are typically chronic processes in man, more persistent gene changes are more likely to be central to pathophysiological mechanisms. Gene expression was examined in the prefrontal cortex and amygdala, using the Afymetrix U34A GeneChip, which interrogates approximately 7,000 known genes and 1,000 ESTs (expressed sequence tags) using an oligonucleotide nicroarray (See, Lipshutz et al., Nat. Genet. 21:20 [1999]). These brain regions were chosen based on the extensive literature that highlights their central role in cognition and emotion (See e.g., Heimer and Alheid, Adv. Exp. Med. Biol. 1:295 [1991]).
# (§2) A two-fold increase or decrease in expression was chosen as a conventional empirical cut-off. Thus, at least a two-fold change in each of two independent animal experiments was used to select those genes with the most robust and reproducible change in expression. In each experiment, pooled tissues from three methamphetamine-treated and three control rats were used. In these analyses, standard default settings of the Affymetrix GeneChip Expression Algorithm were used. A gene had to be called “Present” and “Changed,” in at least one out of two experiments and had to have an Average Difference Change greater than 50, as well as a fold change greater than 2 in two out of two experiments. […] The genes that were induced more than two-fold in both experiments were also identified by their GenBank accession numbers, as indicated in Tables 1 and 2. […]
# GRK2 = test: as above; assay type: in vivo; settings: 24 hours after single dose 4 mg/kg, one value per each of two experiments
# Method: as §1, §2
# SULT1A1 = test: Gene expression in rat brain after stimulant treatment (Affymetrix U34A GeneChip), amygdala; settings: 24 h, read-out: Fold Induction of SULT1A1
# Method: as §1
# (§3) A two-fold increase or decrease in expression was chosen as a conventional empirical cut-off. Thus, at least a two-fold change in each of two independent animal experiments was used to select those genes with the most robust and reproducible change in expression. In each experiment, pooled tissues from three methamphetamine-treated and three control rats were used. In these analyses, standard default settings of the Affymetrix GeneChip Expression Algorithm were used. A gene had to be called “Present” and “Changed,” in at least one out of two experiments and had to have an Average Difference Change greater than 50, as well as a fold change greater than 2 in two out of two experiments. […] The genes that were induced more than two-fold in both experiments were also identified by their GenBank accession numbers, as indicated in Tables 1 and 2.
# (§4) After 24 hours, the rats were humanely sacrificed and the brains were harvested.
# (§5) Tissues from each brain region from the three animals in each experimental group were pooled (i.e., test and control animals). Total RNA was isolated from the tissue using standard protocols known in the art. Briefly, STAT-60 extraction buffer, and phenol/chloroform extraction was used. cDNA was synthesized and used as templates to produce biotin-labelled antisense cRNAs using an in vitro transcription reaction. After fragmentation, the CRNA hybridization cocktail was prepared, cleaned, and applied to the Affymetrix GeneChip oligonucleotide array.
# (§6) A two-fold increase or decrease in expression was chosen as a conventional empirical cut-off. Thus, at least a two-fold change in each of two independent animal experiments was used to select those genes with the most robust and reproducible change in expression. In these analyses, standard default settings of the Affymetrix GeneChip Expression Algorithm were used.
# ADORA3 = test: as above; settings: 24 h, read-out: Fold Induction of ADORA3
# Method: as §1, §3, §4, §5, §6
# POLR2F = test: as above; settings: 24 h, read-out: Fold Induction of POLR2F
# Method: as §1, §3, §4, §5, §6
# HSPB1 = test: as above; settings: 24 h, read-out: Fold Induction of HSPB1
# Method: as §1, §3, §4, §5, §6
# FCGRT = test: as above; settings: 24 h, read-out: Fold Induction of FCGRT
# Method: as §1, §3, §4, §5, §6
# NDUFS8 = test: as above; settings: 24 h, read-out: Fold Induction of NDUFS8
# Method: as §1, §3, §4, §5, §6
# IGF1 = test: as above; settings: 24 h, read-out: Fold Induction of IGF1
# Method: as §1, §3, §4, §5, §6
# FEZ2 = test: as above; settings: 24 h, read-out: Fold Induction of FEZ2
# Method: as §1, §3, §4, §5, §6
# NTRK3 = test: as above; settings: 24 h, read-out: Fold Induction of NTRK3
# Method: as §1, §3, §4, §5, §6
# DBP = test: Gene expression in rat brain after stimulant treatment (Affymetrix U34A GeneChip), prefrontal cortex; settings: 24 h, read-out: Fold Induction of DBP
# Method: as §1, §3, §4, §5
# (§7) A two-fold increase or decrease in expression was chosen as a conventional empirical cut-off. […]
# FDFT1 = test: as above; settings: 24 h, read-out: Fold Induction of FDFT1
# Method: as §1, §3, §4, §5, §7
# MALS-1 = test: as above; settings: 24 h, read-out: Fold Induction of MALS-1
# Method: as §1, §3, §4, §5, §7
# GRK3 = test: as above; settings: 24 h, read-out: Fold Induction of GRK3
# Method: as §1, §3, §4, §5, §7
compound,measurement,setting,value
CN[C@@H](C)Cc1ccccc1 [methamphetamine],average fold change of FGFR1 expression,FGFR1; average of two experiments,4.1 fold
same,fold increase of FGFR1 expression in one of the two experiments,FGFR1; one of the two experiments,1.8 fold
same,fold changes in GRK2 expression,GRK2,1.1 fold and 1.0 fold
same,fold induction at 4 mg/kg,SULT1A1,4.3
same,fold induction at 4 mg/kg,ADORA3,2.7
same,fold induction at 4 mg/kg,POLR2F,3.9
same,fold induction at 4 mg/kg,HSPB1,2.8
same,fold induction at 4 mg/kg,FCGRT,3.2
same,fold induction at 4 mg/kg,NDUFS8,20.8
same,fold induction at 4 mg/kg,IGF1,3
same,fold induction at 4 mg/kg,FEZ2,2.3
same,fold induction at 4 mg/kg,NTRK3,2.7
same,fold induction at 4 mg/kg,DBP,7
same,fold induction at 4 mg/kg,FDFT1,2.9
same,fold induction at 4 mg/kg,MALS-1,2.9
same,fold induction at 4 mg/kg,GRK3,14.2
